Patent US20220107328A1, “METHODS OF TREATING LIVER DISEASES” (Camp4 Therapeutics Corporation, priority 2018, published 2022)

Legend:
mouse hepatocytes = assay: Cytotoxicity in mouse hepatocytes; type: cell-based; conditions: 10 μM
COL1A2 mRNA = assay: qRT-PCR of fibrosis related genes in stellate cells, COL1A2; type: cell-based, human; conditions: stellate cells P7, 0.5 μM, 18 hours
Experimental: (§1) Stellate cells P7 were treated with 0.5 μM of each of the indicated compounds for 18 hours. Cells were processed for RNA extraction and qRT-PCR as previously described. The assay was repeated in triplicate.

MMP2 mRNA = assay: qRT-PCR of fibrosis related genes in stellate cells, MMP2; type: cell-based, human; conditions: stellate cells P7, 0.5 μM, 18 hours
Experimental: as §1

TGFB1 mRNA = assay: qRT-PCR of fibrosis related genes in stellate cells, TGFB1; type: cell-based, human; conditions: stellate cells P7, 0.5 μM, 18 hours
Experimental: as §1

ACTA2 mRNA = assay: qRT-PCR of fibrosis related genes in stellate cells, ACTA2; type: cell-based, human; conditions: stellate cells P7, 0.5 μM, 18 hours
Experimental: as §1

TIM2 mRNA = assay: qRT-PCR of fibrosis related genes in stellate cells, TIM2; type: cell-based, human; conditions: stellate cells P7, 0.5 μM, 18 hours
Experimental: as §1

PNPLA3 expression = assay: RNA-seq of compound-treated primary human hepatocytes; type: cell-based
Experimental: (§3) Cryopreserved hepatocytes were cultured in plating media for 16 hours, transferred to maintenance media for 4 hours. Cultured on serum-free media for 2 hours, then a compound was added. The hepatocytes were maintained on the serum-free media for 16 hours prior to gene expression analysis.
(§4) Human hepatocytes cultured as described above were plated in 24-well format, adding 375,000 cells per well in a volume of 500 μl plating medium. Four hours before treatment, cells were washed with PBS and the medium was changed to either: fresh maintenance medium (complete) or modified maintenance medium.
(§5) Compound stocks were prepared at 1000× final concentration and added in a 2-step dilution to the medium to reduce risk of a compound precipitating out of solution when added to the cells, and to ensure reasonable pipetting volumes. One at a time, each compound was first diluted 10-fold in warm (about 37° C.) modified maintenance medium (initial dilution=ID), mixed by vortexing, and the ID was diluted 100-fold into the cell culture (e.g. 5.1 μl into 1 well of a 24-well plate containing 0.5 mL medium). The plate was mixed by carefully swirling and after all wells were treated and returned to the incubator overnight. If desired, separate plates/wells were treated with vehicle-only controls and/or positive controls. If using multi-well plates, controls were included on each plate. After about 18 hours, cells were harvested for further analysis, e.g., ChIP-seq, RNA-seq, ATAC-seq, etc.
The expression level of each gene was quantified with normalized FPKM (fragments per kilobase of exon per million mapped fragments). The differentially expressed genes were called using Cuffdiff v2.2.1 with q value<0.01 and log2 fold change>=1 or <=−1.
(§6) To identify small molecules that modulate PNPLA3, primary human hepatocytes were prepared as a monoculture, and at least one small molecule compound was applied to the cells.
(§7) RNA-seq was performed to determine the effects of the compounds on PNPLA3 expression in hepatocytes. Fold change was calculated by dividing the level of expression in the cell system that had been perturbed by the level of expression in an unperturbed system. Changes in expression having a p-value≤0.05 were considered significant.

PCSK9 mRNA = assay: qRT-PCR of PCSK9 mRNA in primary hepatocytes; type: cell-based, human; conditions: donor 4178, 3 μM, relative to GUSB
PNPLA3 mRNA [1] = assay: qRT-PCR of PNPLA3 mRNA in human primary hepatic stellate cells; type: cell-based; conditions: for Primary Stellate cells PNPLA3 (fold change in mRNA expression): 3 μM, relative to GAPDH
[2] = tested on: COL1A1 mRNA in mouse liver; assay: In vivo compound testing in wild-type mice, liver COL1A1 mRNA; conditions: 50 mg/kg once daily, oral gavage, four days; GFAP as control
Experimental: A group of 6 mice (C57BL/6J strain), 3 male and 3 female, were administered with a candidate compound once daily via oral gavage for four consecutive days. Mice were sacrificed 4 hours post-last dose on the fourth day. Organs including liver, spleen, kidney, adipose, plasma were collected. Mouse liver tissues were pulverized in liquid nitrogen and aliquoted into small microtubes. TRIzol (Invitrogen Cat #15596026) was added to the tubes to facilitate cell lysis from tissue samples. The TRIzol solution containing the disrupted tissue was then centrifuged and the supernatant phase was collected. Total RNA was extracted from the supernatant using Qiagen RNA Extraction Kit (Qiagen Cat #74182) and the target mRNA levels were analyzed using qRT-PCR.
Candidate compounds were administered at an appropriate dose once daily to a group of wild-type mice consisting of 3 male and 3 female mice. Mice were sacrificed on the fourth day and liver tissue was collected and analyzed for PNPLA3 (or COL1A1) expression by qRT-PCR. […] When COL1A1 was analyzed, a stellate cell specific gene GFAP was used as a house-keeping control.

PNPLA3 mRNA [3] = assay: qRT-PCR of PNPLA3 mRNA in compound-treated primary human hepatocytes; conditions: for Primary Hepatocytes 4178 PNPLA3 (fold change in mRNA expression): donor 4178, 3 μM; for Primary Hepatocytes 4178 PNPLA3 (fold change in mRNA expression) / Primary Hepatocytes 4282 PNPLA3 (fold change in mRNA expression): relative to GUSB; for Primary Hepatocytes 4282 PNPLA3 (fold change in mRNA expression): donor 4282, 3 μM
Experimental: as §3, §4, §5
Analysis of the fold changes in expression as measured by qRT-PCR were performed using the technique below. The control was DMSO, and the treatment was the selected compound (CPD). The internal control was GAPDH or B-Actin (or otherwise indicated), and the gene of interest is the target. First, the averages of the 4 conditions were calculated for normalization: DMSO:GAPDH, DMSO:Target, CPD: GAPDH, and CPD:Target. Next, the ΔCT of both control and treatment were calculated to normalize to internal control (GAPDH) using (DMSO:Target)−(DMSO:GAPDH)=ΔCT control and (CPD:Target)−(CPD: GAPDH)=ΔCT experimental. Then, the ΔΔCT was calculated by ΔCT experimental−ΔCT control. The Expression Fold Change (or Relative Quantification, abbreviated as RQ) was calculated by 2−(ΔΔCT) (2-fold expression change was shown by RNA-Seq results provided herein).
The aim of the validation studies was to test the identified compounds from key pathways, and expand the compound franchise to identify other potential hits. Candidate compounds were subjected to validation with qRT-PCR in human hepatocytes. qRT-PCR was performed on samples of primary human hepatocytes from a second donor treated with the candidate compounds. Compounds were tested at concentrations ranging from 0.01 μM to 50 μM, with the majority tested at 10 μM.
Primary human hepatocytes and stellate cells were also incubated with inhibitors of the TGFβ pathway and PNPLA3 gene expression changes assessed via qRT-PCR as previously described. In addition, primary hepatocytes and stellate cells were treated with TGFβ-ligand alone or with selected the small molecule inhibitors for 18 hours and subsequently harvested. for gene expression assays.
The other set was harvest for mRNA processing as previously described.

COL1A1 mRNA = assay: qRT-PCR of COL1A1 mRNA in human primary hepatic stellate cells; type: cell-based; conditions: for Primary Stellate cells COL1A1 (fold change in mRNA expression): 3 μM, relative to GAPDH
[4] = tested on: phosphorylated S6 (pS6/S6); assay: Western blot of phosphorylated S6 in human hepatocytes; type: cell-based; conditions: human hepatocytes, 3 μM, mTORC1 pathway; time point not stated
Experimental: (§2) Levels of phosphorylated S6, AKT, and NDRG1 proteins were determined as compared to total S6, AKT, and NDRG1 protein. PNPLA3 mRNA expression was quantified and normalized to housekeeping gene GUSB.

[5] = tested on: phosphorylated NDRG1 (pNDRG1/NDRG1); assay: Western blot of phosphorylated NDRG1 in human hepatocytes; type: cell-based; conditions: 3 μM, mTORC2 pathway, time point not stated
Experimental: as §2

[6] = tested on: phosphorylated 4EBP1 (p4EBP1c (37/46)/4EBP1c); assay: Western blot of phosphorylated 4EBP1 in human hepatocytes; type: cell-based; conditions: 3 μM, mTORC1 pathway, time point not stated
[7] = tested on: phosphorylated AKT (pAKT/AKT); assay: Western blot of phosphorylated AKT in human hepatocytes; type: cell-based; conditions: human hepatocytes, 3 μM, mTORC2 pathway; time point not stated
Experimental: as §2

PNPLA5 expression = assay: RNA-seq of compound-treated primary human hepatocytes, PNPLA5; type: cell-based
Experimental: as §6, §7

[8] = hepatic stellate cells, 0.01 μM
[9] = hepatic stellate cells, serial dilutions, 18 hours
[10] = stellate cells P7, 0.5 μM, 18 hours

Molecule: C1=C/COCc2cc(ccc2OCCN2CCCC2)Nc2nccc(n2)-c2cccc(c2)COC/1 [Pacritinib]
- cytotoxicity / tolerability (mouse hepatocytes): slight cytotoxicity

Molecule: CNC(=O)Nc1ccc(-c2nc(N3CC4CCC(C3)O4)c3cnn(C4CCC5(CC4)OCCO5)c3n2)cc1 [WYE-125132]
- Relative mRNA COL1A2 (COL1A2 mRNA): 0.27 ± 0.00
- Relative mRNA MMP2 (MMP2 mRNA): 1.33 ± 0.02
- Relative mRNA TGFB1 (TGFB1 mRNA): 1.10 ± 0.03
- Relative mRNA ACTA2 (ACTA2 mRNA): 0.54 ± 0.01
- Relative mRNA TIMP2 (TIM2 mRNA): 1.01 ± 0.07
- Fold change (Log 2) vs untreated (PNPLA3 expression; PNPLA3 expression, RNA-seq): −0.86
- Primary Hepatocytes 4178 PCSK9 (fold change in mRNA expression) (PCSK9 mRNA): 0.43
- Primary Stellate cells PNPLA3 (fold change in mRNA expression) (PNPLA3 mRNA [1]): 0.54
- Relative PNPLA3 mRNA levels RQ (PNPLA3 mRNA [1]; [8]): 0.44
- Relative PNPLA3 mRNA levels RQ (PNPLA3 mRNA [1]; hepatic stellate cells, 0.1 μM): 0.36
- Relative PNPLA3 mRNA levels RQ (PNPLA3 mRNA [1]; hepatic stellate cells, 1 μM): 0.42
- Relative PNPLA3 mRNA levels RQ (PNPLA3 mRNA [1]; hepatic stellate cells, 10 μM): 0.42
- PNPLA3 mRNA levels (in words) (PNPLA3 mRNA [1]; [9]): decreased both PNPLA3 and COL1A1 in HSCs in a dose-dependent manner
- Relative mRNA PNPLA3 (PNPLA3 mRNA [1]; [10]): 0.20 ± 0.01
- COL1A1 expression in mouse liver (in words) [2]: reduced COL1A1 expression in mouse liver
- Relative PNPLA3 mRNA levels (PNPLA3 mRNA [3]; 1 μM of WYE-125132, human hepatocytes, qRT-PCR, mean of three replicates ± standard deviation): 0.67 ± 0.09
- Primary Hepatocytes 4178 PNPLA3 (fold change in mRNA expression) (PNPLA3 mRNA [3]): 0.43
- Primary Hepatocytes 4282 PNPLA3 (fold change in mRNA expression) (PNPLA3 mRNA [3]): 0.70
- PNPLA3 expression by reported compound specificity (in words) (PNPLA3 mRNA [3]; summary of mTOR/PI3K inhibitor testing): did decrease PNPLA3 expression
- Primary Stellate cells COL1A1 (fold change in mRNA expression) (COL1A1 mRNA): 0.46
- Relative COL1A1 mRNA levels RQ (COL1A1 mRNA; [8]): 0.92
- Relative COL1A1 mRNA levels RQ (COL1A1 mRNA; hepatic stellate cells, 0.1 μM): 0.42
- Relative COL1A1 mRNA levels RQ (COL1A1 mRNA; hepatic stellate cells, 1 μM): 0.26
- Relative COL1A1 mRNA levels RQ (COL1A1 mRNA; hepatic stellate cells, 10 μM): 0.29
- COL1A1 expression (in words) (COL1A1 mRNA; [9]): decreased both PNPLA3 and COL1A1 in HSCs in a dose-dependent manner
- Relative mRNA COL1A1 (COL1A1 mRNA; [10]): 0.22 ± 0.01

Molecule: CO[C@H]1C[C@@H]2CC[C@@H](C)[C@@](O)(O2)C(=O)C(=O)N2CCCC[C@H]2C(=O)O[C@H]([C@H](C)C[C@@H]2CC[C@@H](O)[C@H](OC)C2)CC(=O)[C@H](C)/C=C(\C)[C@@H](O)[C@@H](OC)C(=O)[C@H](C)C[C@H](C)/C=C/C=C/C=C/1C [rapamycin]
- pS6/S6 [4]: 0.07
- p-NDRG1/NDRG1 [5]: 1.76
- p4EBP1c (37/46)#/4EBP1c [6]: 0.49
- pAKT (473)/AKT [7]: 2.55
- Primary Hepatocytes 4178 PCSK9 (fold change in mRNA expression) (PCSK9 mRNA): 1.37
- Primary Stellate cells PNPLA3 (fold change in mRNA expression) (PNPLA3 mRNA [1]): 0.49
- Primary Hepatocytes 4178 PNPLA3 (fold change in mRNA expression) (PNPLA3 mRNA [3]): 1.50
- Primary Hepatocytes 4282 PNPLA3 (fold change in mRNA expression) (PNPLA3 mRNA [3]): 1.10
- PNPLA3 mRNA (PNPLA3 mRNA [3]; human hepatocytes, 3 μM, normalized to GUSB, time point not stated): 1.2
- Primary Stellate cells COL1A1 (fold change in mRNA expression) (COL1A1 mRNA): 1.43

Molecule: Activin
- PNPLA5 expression in the RNA-seq study (in words) (PNPLA5 expression): best upregulators of PNPLA3 and PNPLA5
- PNPLA3 expression in the RNA-seq study (in words) (PNPLA3 expression): best upregulators of PNPLA3 and PNPLA5

B1: GDF2 (protein, UniProt Q9UK05 320-429, looked up)
Growth/differentiation factor …: SAGAGSHCQKTSLRVNFEDIGWDSWIIAPKEYEAYECKGGCFFPLADDVTPTKHAIVQTLVHLKFPTKVGKACCVPTKLSPISVLYKDDMGVPTLKYHYEGMSVAECGCR
- PNPLA5 expression in the RNA-seq study (in words) (PNPLA5 expression): best upregulators of PNPLA3 and PNPLA5
- PNPLA3 expression in the RNA-seq study (in words) (PNPLA3 expression): best upregulators of PNPLA3 and PNPLA5
